# Test results reported in article PMC3994528, “GE23077 binds to the RNA polymerase ‘i’ and ‘i+1’ sites and prevents the binding of initiating nucleotides” (eLife, 2014).
# How the values were obtained:
# [1] = test system: Escherichia coli D21f2tolC; assay: Antibacterial activity, MIC by broth microdilution; assay type: cell-based; settings: starting cell density 3 × 10^4 cfu/ml
# Excerpt: (§1) Minimum inhibitory concentrations (MICs) were quantified using broth microdilution assays ([Clinical and Laboratory Standards Institute, 2009]), using a starting cell density of 3 × 10^4 cfu/ml, LB broth ([Sambrook and Russell, 2001]), and an air atmosphere for E. coli D21f2tolC (tolC:Tn10 rfa lac28 proA23 trp30 his51 rpsL173 ampC tsx81; strain with cell-envelope defects resulting in increased susceptibility to hydrophobic agents, including GE; Fralick and Burns-Keliher, 1994; unpublished data), and using a starting cell density of 3 × 10^4 cfu/ml, Bacto Todd Hewitt broth (TH broth; BD Biosciences, San Jose, CA), and a 7% CO2/6% O2/4% H2/83% N2 atmosphere for S. pyogenes and M. catarrhalis.
# [2] = test system: Moraxella catarrhalis ATCC 25238; assay: Antibacterial activity, MIC by broth microdilution; assay type: cell-based; settings: ATCC25238
# Excerpt: as §1
# [3] = test system: Streptococcus pyogenes ATCC 12344; assay: Antibacterial activity, MIC by broth microdilution; assay type: cell-based; settings: ATCC12344
# Excerpt: as §1
# Escherichia coli RNAP = Escherichia coli RNAP (Escherichia coli, UniProt P0A8T7+P0A8V2); assay: biochemical; assay type: biochemical; settings: wild-type E. coli RNAP
# [4] = biological target: T1, Staphylococcus aureus RNAP (Staphylococcus aureus, UniProt P47768+Q2G0N5); assay: biochemical
# T1 construct: made in house
# [5] = biological target: T2, Mycobacterium tuberculosis RNAP (Mycobacterium tuberculosis, UniProt P9WGY7+P9WGY9); assay: biochemical
# T2 construct: made in house
# [6] = biological target: T3, Thermus thermophilus RNAP (Thermus thermophilus, UniProt Q8RQE8+Q8RQE9); assay: biochemical
# T3 construct: made in house
# T3 sequence (Q8RQE8 whole entry): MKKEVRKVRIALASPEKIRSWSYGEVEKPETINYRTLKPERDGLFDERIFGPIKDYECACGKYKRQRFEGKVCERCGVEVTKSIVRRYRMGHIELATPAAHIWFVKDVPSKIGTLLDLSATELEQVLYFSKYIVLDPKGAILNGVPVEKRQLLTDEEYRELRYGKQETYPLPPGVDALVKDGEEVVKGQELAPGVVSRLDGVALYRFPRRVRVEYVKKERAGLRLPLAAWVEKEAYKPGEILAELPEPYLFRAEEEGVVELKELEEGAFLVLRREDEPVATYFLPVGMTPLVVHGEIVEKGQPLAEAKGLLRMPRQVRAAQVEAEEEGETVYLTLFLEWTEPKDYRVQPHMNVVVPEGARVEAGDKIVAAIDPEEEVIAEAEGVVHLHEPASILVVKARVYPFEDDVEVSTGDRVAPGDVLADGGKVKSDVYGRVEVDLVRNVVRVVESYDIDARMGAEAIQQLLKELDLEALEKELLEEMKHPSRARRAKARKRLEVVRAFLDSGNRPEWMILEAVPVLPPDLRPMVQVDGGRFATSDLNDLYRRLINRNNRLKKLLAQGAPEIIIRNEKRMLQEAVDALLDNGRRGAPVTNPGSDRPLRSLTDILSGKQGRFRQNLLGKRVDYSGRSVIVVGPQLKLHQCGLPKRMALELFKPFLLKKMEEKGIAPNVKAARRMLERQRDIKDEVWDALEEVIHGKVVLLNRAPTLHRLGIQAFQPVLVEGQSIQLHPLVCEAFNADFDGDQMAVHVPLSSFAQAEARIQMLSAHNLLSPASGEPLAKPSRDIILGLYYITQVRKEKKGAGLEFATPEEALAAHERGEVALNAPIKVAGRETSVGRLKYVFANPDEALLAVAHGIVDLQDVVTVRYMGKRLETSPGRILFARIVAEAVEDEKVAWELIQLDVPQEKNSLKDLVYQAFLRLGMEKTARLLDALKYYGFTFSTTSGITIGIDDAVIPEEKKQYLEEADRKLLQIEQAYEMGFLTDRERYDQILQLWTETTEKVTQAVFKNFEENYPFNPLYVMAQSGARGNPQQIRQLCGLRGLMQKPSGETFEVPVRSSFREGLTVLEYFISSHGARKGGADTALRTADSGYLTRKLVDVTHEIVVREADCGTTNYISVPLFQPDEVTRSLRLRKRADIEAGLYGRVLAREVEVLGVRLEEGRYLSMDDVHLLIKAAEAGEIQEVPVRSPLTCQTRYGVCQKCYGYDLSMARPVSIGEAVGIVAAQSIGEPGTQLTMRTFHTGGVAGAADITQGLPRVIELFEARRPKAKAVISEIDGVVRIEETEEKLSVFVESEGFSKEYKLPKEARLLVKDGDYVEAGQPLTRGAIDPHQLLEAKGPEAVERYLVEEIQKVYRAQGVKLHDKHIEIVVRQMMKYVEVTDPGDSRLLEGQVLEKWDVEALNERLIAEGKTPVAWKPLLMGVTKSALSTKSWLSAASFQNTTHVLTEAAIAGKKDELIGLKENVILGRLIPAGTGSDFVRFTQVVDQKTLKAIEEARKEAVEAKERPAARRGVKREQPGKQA
# T3 sequence (Q8RQE9 whole entry): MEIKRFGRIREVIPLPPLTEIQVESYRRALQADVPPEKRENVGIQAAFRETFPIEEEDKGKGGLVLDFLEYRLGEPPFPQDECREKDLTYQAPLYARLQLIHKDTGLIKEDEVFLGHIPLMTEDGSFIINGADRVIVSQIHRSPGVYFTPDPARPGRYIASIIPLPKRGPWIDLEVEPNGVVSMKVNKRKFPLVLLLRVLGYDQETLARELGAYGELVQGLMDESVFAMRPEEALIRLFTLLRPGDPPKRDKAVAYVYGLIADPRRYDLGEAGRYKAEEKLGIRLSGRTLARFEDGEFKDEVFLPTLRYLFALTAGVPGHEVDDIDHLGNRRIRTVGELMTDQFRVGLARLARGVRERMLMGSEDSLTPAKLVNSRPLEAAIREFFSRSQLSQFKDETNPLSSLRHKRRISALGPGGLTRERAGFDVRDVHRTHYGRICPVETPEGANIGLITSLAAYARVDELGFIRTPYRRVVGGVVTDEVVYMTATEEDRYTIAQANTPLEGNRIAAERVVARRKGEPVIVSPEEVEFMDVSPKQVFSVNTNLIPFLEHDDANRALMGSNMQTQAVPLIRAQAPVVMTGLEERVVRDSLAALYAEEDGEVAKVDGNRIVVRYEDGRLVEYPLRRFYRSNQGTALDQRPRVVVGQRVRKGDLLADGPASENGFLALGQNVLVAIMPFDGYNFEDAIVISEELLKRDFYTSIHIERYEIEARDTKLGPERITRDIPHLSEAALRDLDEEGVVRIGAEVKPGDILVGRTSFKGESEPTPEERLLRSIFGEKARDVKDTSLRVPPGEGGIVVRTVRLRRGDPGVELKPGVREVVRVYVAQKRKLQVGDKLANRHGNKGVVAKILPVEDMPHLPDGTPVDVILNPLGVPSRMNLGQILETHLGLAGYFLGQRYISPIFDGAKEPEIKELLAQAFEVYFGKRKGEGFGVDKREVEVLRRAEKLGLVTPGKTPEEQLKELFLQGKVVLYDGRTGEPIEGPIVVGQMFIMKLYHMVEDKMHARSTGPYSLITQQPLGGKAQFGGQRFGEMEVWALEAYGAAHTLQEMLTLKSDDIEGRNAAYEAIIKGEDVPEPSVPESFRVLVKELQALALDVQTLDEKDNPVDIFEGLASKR
# Human RNAP I / II / III = assay: Radiochemical assay with human RNAP I/II/III (HeLa nuclear extract); assay type: biochemical
# Method: Radiochemical assays with human RNAP I/II/III were performed essentially as in [Sawadogo and Roeder (1985)]. Reaction mixtures contained (20 µl): 0–100 µM GE, 8 U HeLaScribe Nuclear Extract (Promega, Madison, WI), 1 µg human placental DNA (Sigma–Aldrich), 400 μM ATP, 400 μM [α^32P]UTP (0.11 Bq/fmol), 400 μM CTP, 400 μM GTP, 50 mM Tris–HCl, pH 8.0, 7 mM HEPES-NaOH, 70 mM (NH4)2SO4, 50 mM KCl, 12 mM MgCl2, 5 mM DTT, 0.1 mM EDTA, 0.08 mM phenylmethylsulfonyl fluoride, and 16% glycerol. Reaction components other than DNA and NTPs were pre-incubated 10 min at 30°C, DNA was added and reaction mixtures were incubated 15 min at 30°C, NTPs were added and reaction mixtures were incubated 60 min at 30°C. Reaction mixtures were spotted on DE81 filter discs (Whatman, Kent, UK; pre-wetted with water) and incubated 1 min at room temperature. Filters were washed with 3 × 3 ml Na2HPO4, 2 × 3 ml water, and 3 ml ethanol, using a filter manifold (Hoefer, Holliston, MA). Filters were placed in scintillation vials containing 10 ml Scintiverse BD Cocktail (Thermo Fisher, Waltham, MA), and radioactivity was quantified by scintillation counting (LS6500; Beckman–Coulter, Brea, CA).
# Half-maximal inhibitory concentrations (IC50s) were calculated by non-linear regression in SigmaPlot (SPSS, Chicago, IL).
# [Lys684]β-RNAP [7] = biological target: T4, [Lys684]β-RNAP (Escherichia coli, UniProt P0A8T7+P0A8V2, N684K); assay: biochemical; settings: GE-resistant RNAP [Lys684]β-RNAP
# E. coli D21f2tolC = assay: Resistance and cross-resistance levels, rpoB mutants from saturation mutagenesis (plasmid-borne), broth microdilution; assay type: cell-based, Escherichia coli
# S. pyogenes = assay: Resistance levels, chromosomal GE^R mutants, broth microdilution; assay type: cell-based, Streptococcus pyogenes
# [8] = biological target: T5, E. coli RNAP holoenzyme ([F^517]σ^70-RNAP holoenzyme) (Escherichia coli, UniProt P0A8T7+P0A8V2); assay: Fluorescence-detected RNAP-Rif interaction assay; assay type: binding
# T5 construct: made in house
# Method: (§2) RNAP-Rif interaction assays were performed as in [Feklistov et al. (2008)]. The assays monitored the quenching of the fluorescence emission of fluorescein incorporated into RNAP holoenzyme at σ^70 residue 517 (serving as a fluorescence-resonance-energy-transfer donor) by the naphthyl moiety of Rif (serving as a fluorescence-resonance-energy-transfer acceptor; [Knight et al., 2005]; [Feklistov et al., 2008]). Fluorescence measurements were performed using a QuantaMaster QM1 spectrofluorometer (PTI, Edison, NJ) (excitation wavelength = 480 nm; emission wavelength = 530 nm; and excitation and emission slit widths = 5 nm).
# For determination of association kinetics, 720 μl 2 nM [F^517]σ^70-RNAP holoenzyme and 0-2 μM GE in 40 mM Tris–HCl, pH 8.0, 100 mM NaCl, 10 mM MgCl2, 1 mM DTT, 0.02% Tween-20, and 5% glycerol was incubated 15 min at 24°C and then mixed with 30 μl 0.01–0.5 μM Rif in the same buffer at 24°C in a cuvette chamber with a mixing dead time ∼0.5 s, and fluorescence emission intensities were monitored for 30 min at 24°C. On-rates for RNAP-Rif interaction, kon, were calculated by fitting data to: I=(I0−I∞)exp(−kobst)+I∞ where kobs is the observed association rate constant at a specified Rif concentration, I is the fluorescence emission intensity at time t, Io is the fluorescence emission intensity at t = 0, and I∞ is the fluorescence emission intensity at t = ∞; followed by fitting the Rif-concentration-dependence of kobs to: kobs=kon[Rif]+koff where koff is ≥0 but is otherwise unconstrained.
# Off-rates for RNAP-Rif interaction, koff, were calculated as: I=I0+(I∞−I0)[1−exp(−kofft)] where I is the fluorescence emission intensity at time t, Io is the fluorescence intensity at t = 0, and I∞ is the fluorescence intensity at t = ∞.
# Equilibrium dissociation constants for RNAP-Rif interaction, Kd, were calculated as koff/kon.
# (§3) The equilibrium dissociation constant for RNAP-GE interaction, Ki, was calculated from the association-kinetics data, by fitting the GE-concentration-dependence of I∞ to: I∞=(I∞,max[GE])/(Ki+[GE])
# [Asp565]β-RNAP = [Asp565]β-RNAP (Escherichia coli, UniProt P0A8T7+P0A8V2, E565D); assay: Fluorescence-detected RNAP-Rif interaction assay, GE-resistant RNAP; assay type: binding
# Method: as §2
# (§4) For determination of association kinetics, 720 μl 2 nM [F^517]σ^70-RNAP holoenzyme and 0-2 μM GE in 40 mM Tris–HCl, pH 8.0, 100 mM NaCl, 10 mM MgCl2, 1 mM DTT, 0.02% Tween-20, and 5% glycerol was incubated 15 min at 24°C and then mixed with 30 μl 0.01–0.5 μM Rif in the same buffer at 24°C in a cuvette chamber with a mixing dead time ∼0.5 s, and fluorescence emission intensities were monitored for 30 min at 24°C. […]
# as §3
# [Lys684]β-RNAP [9] = biological target: T4, [Lys684]β-RNAP; assay: as above; assay type: binding
# Method: as §2, §4, §3
# E. coli RNAP holoenzyme [10] = biological target: T6, E. coli RNAP holoenzyme (Escherichia coli, UniProt P0A8T7+P0A8V2); assay type: biochemical; settings: 0.5 μM GE or 2.2 μM Rif; lacUV5(ICAP) promoter
# E. coli RNAP holoenzyme [11] = biological target: T6, E. coli RNAP holoenzyme; assay type: biochemical; settings: 0.5 μM GE or 2.2 μM Rif; ApA primer and UTP
# E. coli RNAP holoenzyme [12] = biological target: T6, E. coli RNAP holoenzyme; assay type: biochemical; settings: 0.5 μM GE; T7 A1 promoter
# E. coli RNAP holoenzyme [13] = biological target: T6, E. coli RNAP holoenzyme; assay type: biochemical; settings: halted TEC containing 29 nt RNA product
# E. coli RNAP core enzyme = biological target: T7, E. coli RNAP core enzyme (Escherichia coli, UniProt P0A8T7+P0A8V2); assay type: biochemical; settings: 0.5 μM GE
# T7 construct: purchased Epicentre, Madison, WI
compound,measurement,setting,value
"CC=C(C)C(=O)NCC1NC(=O)C(C(=O)O)NC(=O)C(O)CNC(=O)C(C(C)O)NC(=O)C(C(O)C(O)C(N)=O)NC(=O)C(C(C)C)NC(=O)C(CO)NC1=O (stereo not shown) [GE, GE23077]",MIC,[1],250 µg/mL
same,MIC,[2],25 µg/mL
same,MIC,[3],250 µg/mL
same,IC50,Escherichia coli RNAP,20 nM
same,IC50,[4],20 nM
same,IC50,[5],100 nM
same,IC50,[6],20000 nM
same,IC50,Human RNAP I / II / III,> 50000 nM
same,IC50,[Lys684]β-RNAP [7],> 400000 nM
same,cross-resistance of Rif^R mutants to GE,E. coli D21f2tolC; Rif^R mutants,do not exhibit cross-resistance
same,"resistance, fold higher MIC, all six GE^R substitutions",E. coli D21f2tolC; all six GE^R substitutions,≥ fourfold
same,resistance level (MIC/MICwild-type),S. pyogenes; S. pyogenes rpoB 565 [525] Glu→Gly,32
same,resistance level (MIC/MICwild-type),S. pyogenes; S. pyogenes rpoB 565 [525] Glu→Val,32
same,resistance level (MIC/MICwild-type),S. pyogenes; S. pyogenes rpoB 681 [643] Met→Lys,16
same,resistance level (MIC/MICwild-type),S. pyogenes; S. pyogenes rpoB 684 [646] Asn→Ile,>32
same,MICwild-type,S. pyogenes; wild-type S. pyogenes,250 µg/mL
same,fold decrease of kon for Rif by GE,[8]; saturating GE,~20 fold
same,fold increase of Kd for Rif by GE,[8]; saturating GE,~80 fold
same,fold increase of koff for Rif by GE,[8]; saturating GE,fourfold
same,Ki,"[8]; wild-type RNAP, 24°C, read-out: Ki,GE, equilibrium dissociation constant for inhibition of RNAP-Rif interaction by GE",6 nM
same,Ki,[Asp565]β-RNAP,> 2000 nM
same,Ki,[Lys684]β-RNAP [9],> 2000 nM
same,inhibition of formation of RNAP-promoter open complex (RPo),E. coli RNAP holoenzyme [10],does not inhibit
same,"inhibition of first nucleotide addition, primer-dependent transcription initiation",E. coli RNAP holoenzyme [11],inhibits the first nucleotide-addition step
same,"inhibition of first nucleotide addition, de novo transcription initiation",E. coli RNAP holoenzyme [12],inhibits the first nucleotide-addition step
same,"inhibition of nucleotide addition in transcription elongation, halted elongation complex",E. coli RNAP holoenzyme [13],does not inhibit transcription elongation
same,"inhibition of single nucleotide addition, reconstituted elongation complex",E. coli RNAP core enzyme,does not inhibit single nucleotide addition
same,MICwild-type,,500 µg/mL
